Measurements published in publication PMC5564600 (Oncotarget, 2017).

How the values were obtained:
Assay in all cases: biochemical
Type in all cases: binding
panel of 442 kinases [1] = biological target: T1, panel of 442 kinases (Homo sapiens, UniProt P45984); conditions: kinase JNK2; for remaining activity at 1 µM: read-out: % of control at 1 µM
T1 construct: purchased Ambit Biosciences (scanMAXX KINOMEscan)

panel of 442 kinases [2] = biological target: T2, panel of 442 kinases (Homo sapiens, UniProt Q04759); conditions: kinase PRKCQ; for remaining activity at 1 µM: read-out: PRKCQ (% of control at 1 µM)
T2 construct: purchased Ambit Biosciences (scanMAXX KINOMEscan)

panel of 442 kinases [3] = biological target: T3, panel of 442 kinases (Homo sapiens, UniProt Q6XUX3); conditions: kinase RIPK5; for remaining activity at 1 µM: read-out: RIPK5 (% of control at 1 µM)
T3 construct: purchased Ambit Biosciences (scanMAXX KINOMEscan)
T3 sequence (Q6XUX3 1-929): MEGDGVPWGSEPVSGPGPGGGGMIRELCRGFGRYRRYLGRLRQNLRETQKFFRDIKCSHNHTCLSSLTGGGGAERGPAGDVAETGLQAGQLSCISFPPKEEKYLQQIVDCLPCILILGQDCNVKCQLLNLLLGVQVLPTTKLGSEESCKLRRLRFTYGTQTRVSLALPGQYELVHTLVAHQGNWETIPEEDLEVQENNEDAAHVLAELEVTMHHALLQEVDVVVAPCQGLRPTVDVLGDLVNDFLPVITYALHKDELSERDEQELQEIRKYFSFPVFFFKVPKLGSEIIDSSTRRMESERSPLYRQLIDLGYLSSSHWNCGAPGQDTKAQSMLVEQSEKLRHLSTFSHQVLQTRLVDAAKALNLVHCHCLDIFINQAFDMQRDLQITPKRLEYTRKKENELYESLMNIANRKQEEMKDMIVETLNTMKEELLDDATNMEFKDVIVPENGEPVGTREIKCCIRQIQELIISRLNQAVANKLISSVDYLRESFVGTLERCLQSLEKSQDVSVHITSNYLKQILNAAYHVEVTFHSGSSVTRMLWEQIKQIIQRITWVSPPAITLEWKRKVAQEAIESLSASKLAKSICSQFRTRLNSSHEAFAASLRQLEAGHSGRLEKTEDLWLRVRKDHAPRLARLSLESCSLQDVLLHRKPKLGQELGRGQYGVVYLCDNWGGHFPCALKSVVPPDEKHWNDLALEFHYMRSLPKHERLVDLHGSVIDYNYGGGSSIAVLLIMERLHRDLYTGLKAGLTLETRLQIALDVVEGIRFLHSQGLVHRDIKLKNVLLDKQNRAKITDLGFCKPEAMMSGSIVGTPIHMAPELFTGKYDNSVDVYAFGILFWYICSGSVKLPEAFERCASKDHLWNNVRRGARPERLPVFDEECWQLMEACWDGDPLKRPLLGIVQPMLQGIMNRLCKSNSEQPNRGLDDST

panel of 442 kinases [4] = biological target: T4, panel of 442 kinases (Homo sapiens, UniProt P46734); conditions: kinase MEK3; for remaining activity at 1 µM: read-out: % of control at 1 µM
T4 construct: purchased Ambit Biosciences (scanMAXX KINOMEscan)
T4 sequence (P46734 1-347): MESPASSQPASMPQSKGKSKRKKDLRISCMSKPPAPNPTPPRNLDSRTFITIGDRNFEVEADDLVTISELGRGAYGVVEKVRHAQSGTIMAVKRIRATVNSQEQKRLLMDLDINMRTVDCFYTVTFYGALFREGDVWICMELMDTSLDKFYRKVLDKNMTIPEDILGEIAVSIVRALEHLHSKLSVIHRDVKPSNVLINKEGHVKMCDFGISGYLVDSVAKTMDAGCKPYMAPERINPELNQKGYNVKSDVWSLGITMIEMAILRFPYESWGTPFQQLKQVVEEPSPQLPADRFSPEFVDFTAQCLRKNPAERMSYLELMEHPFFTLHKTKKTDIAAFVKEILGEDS

panel of 442 kinases [5] = biological target: T5, panel of 442 kinases (Homo sapiens, UniProt Q02779); conditions: kinase MLK2; for remaining activity at 1 µM: read-out: % of control at 1 µM
T5 construct: purchased Ambit Biosciences (scanMAXX KINOMEscan)

panel of 442 kinases [6] = biological target: T6, panel of 442 kinases (Homo sapiens, UniProt P49336); conditions: CDK8; for remaining activity at 1 µM: read-out: % of control at 1 µM
T6 construct: purchased Ambit Biosciences (scanMAXX KINOMEscan)

panel of 442 kinases [7] = biological target: T7, panel of 442 kinases (Homo sapiens, UniProt P10721, V559D); conditions: kinase KIT(V559D); for remaining activity at 1 µM: read-out: % of control at 1 µM
T7 construct: purchased Ambit Biosciences (scanMAXX KINOMEscan)

panel of 442 kinases [8] = biological target: T8, panel of 442 kinases (Homo sapiens, UniProt P53778); conditions: kinase p38-gamma; for remaining activity at 1 µM: read-out: % of control at 1 µM
T8 construct: purchased Ambit Biosciences (scanMAXX KINOMEscan)
T8 sequence (P53778 1-367): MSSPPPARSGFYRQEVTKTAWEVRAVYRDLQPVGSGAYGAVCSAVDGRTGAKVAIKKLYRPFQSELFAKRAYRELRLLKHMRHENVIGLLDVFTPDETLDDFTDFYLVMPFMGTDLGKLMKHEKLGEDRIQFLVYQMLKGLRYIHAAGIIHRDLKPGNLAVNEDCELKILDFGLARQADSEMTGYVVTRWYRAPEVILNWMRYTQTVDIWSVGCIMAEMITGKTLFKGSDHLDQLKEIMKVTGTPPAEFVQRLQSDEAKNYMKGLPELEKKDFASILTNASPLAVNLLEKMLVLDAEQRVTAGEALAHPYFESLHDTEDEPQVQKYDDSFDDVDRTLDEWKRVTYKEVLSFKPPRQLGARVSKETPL

[9] = 10 µM, read-out: % of control at 10 µM

T6 sequence (P49336 whole entry): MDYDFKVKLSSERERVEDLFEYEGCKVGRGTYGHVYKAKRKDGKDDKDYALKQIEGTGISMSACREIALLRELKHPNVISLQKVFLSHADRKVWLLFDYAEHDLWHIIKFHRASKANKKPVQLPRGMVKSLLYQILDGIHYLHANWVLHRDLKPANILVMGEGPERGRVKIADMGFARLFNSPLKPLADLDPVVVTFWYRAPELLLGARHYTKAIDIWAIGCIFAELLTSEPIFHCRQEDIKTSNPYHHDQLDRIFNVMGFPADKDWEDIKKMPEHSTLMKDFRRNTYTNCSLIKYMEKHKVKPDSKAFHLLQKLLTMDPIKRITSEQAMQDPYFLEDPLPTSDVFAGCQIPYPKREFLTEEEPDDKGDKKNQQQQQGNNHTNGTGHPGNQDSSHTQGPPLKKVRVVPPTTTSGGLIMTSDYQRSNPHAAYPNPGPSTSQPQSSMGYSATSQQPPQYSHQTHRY
T7 sequence (P10721 26-976 V559D): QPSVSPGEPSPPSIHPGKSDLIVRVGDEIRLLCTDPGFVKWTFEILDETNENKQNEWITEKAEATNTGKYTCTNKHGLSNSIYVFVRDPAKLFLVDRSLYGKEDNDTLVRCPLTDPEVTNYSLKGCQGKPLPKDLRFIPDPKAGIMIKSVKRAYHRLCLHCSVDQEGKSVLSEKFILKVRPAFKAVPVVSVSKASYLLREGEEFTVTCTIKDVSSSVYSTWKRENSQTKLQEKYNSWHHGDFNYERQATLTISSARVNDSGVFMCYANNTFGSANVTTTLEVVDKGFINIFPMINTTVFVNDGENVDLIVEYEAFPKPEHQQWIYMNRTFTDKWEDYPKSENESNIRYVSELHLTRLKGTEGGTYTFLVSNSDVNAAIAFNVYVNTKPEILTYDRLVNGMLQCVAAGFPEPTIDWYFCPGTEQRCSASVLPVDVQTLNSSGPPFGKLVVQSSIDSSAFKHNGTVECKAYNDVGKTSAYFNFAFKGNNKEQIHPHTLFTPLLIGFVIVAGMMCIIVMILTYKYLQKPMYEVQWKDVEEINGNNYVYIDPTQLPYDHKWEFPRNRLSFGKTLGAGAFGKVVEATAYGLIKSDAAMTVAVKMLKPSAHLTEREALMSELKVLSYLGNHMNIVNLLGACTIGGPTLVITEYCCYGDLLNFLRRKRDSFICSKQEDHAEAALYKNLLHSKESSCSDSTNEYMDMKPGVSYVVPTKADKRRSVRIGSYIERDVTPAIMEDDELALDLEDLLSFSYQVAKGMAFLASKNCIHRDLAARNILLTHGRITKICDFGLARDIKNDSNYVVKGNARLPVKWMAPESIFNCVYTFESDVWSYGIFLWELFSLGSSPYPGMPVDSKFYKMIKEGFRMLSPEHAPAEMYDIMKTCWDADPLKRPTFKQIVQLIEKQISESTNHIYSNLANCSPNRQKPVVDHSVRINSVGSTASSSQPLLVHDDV
T2 sequence (Q04759 whole entry): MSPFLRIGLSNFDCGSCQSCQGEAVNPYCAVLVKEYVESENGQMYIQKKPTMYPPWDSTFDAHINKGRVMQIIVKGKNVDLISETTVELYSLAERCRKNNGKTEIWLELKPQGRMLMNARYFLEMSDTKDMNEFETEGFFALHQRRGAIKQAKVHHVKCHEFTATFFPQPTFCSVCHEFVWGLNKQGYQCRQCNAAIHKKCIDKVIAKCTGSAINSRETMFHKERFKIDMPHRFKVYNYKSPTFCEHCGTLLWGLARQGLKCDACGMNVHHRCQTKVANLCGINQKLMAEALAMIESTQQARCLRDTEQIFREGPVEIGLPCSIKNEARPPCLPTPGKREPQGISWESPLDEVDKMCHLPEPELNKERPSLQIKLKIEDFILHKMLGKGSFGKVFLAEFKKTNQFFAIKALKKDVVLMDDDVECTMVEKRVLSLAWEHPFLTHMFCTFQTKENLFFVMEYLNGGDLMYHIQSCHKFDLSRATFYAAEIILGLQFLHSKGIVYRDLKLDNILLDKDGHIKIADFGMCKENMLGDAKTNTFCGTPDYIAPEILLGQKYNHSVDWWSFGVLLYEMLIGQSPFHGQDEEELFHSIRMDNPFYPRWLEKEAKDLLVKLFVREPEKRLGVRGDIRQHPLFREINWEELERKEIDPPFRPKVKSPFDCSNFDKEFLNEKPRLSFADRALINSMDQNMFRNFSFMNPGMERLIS
T5 sequence (Q02779 whole entry): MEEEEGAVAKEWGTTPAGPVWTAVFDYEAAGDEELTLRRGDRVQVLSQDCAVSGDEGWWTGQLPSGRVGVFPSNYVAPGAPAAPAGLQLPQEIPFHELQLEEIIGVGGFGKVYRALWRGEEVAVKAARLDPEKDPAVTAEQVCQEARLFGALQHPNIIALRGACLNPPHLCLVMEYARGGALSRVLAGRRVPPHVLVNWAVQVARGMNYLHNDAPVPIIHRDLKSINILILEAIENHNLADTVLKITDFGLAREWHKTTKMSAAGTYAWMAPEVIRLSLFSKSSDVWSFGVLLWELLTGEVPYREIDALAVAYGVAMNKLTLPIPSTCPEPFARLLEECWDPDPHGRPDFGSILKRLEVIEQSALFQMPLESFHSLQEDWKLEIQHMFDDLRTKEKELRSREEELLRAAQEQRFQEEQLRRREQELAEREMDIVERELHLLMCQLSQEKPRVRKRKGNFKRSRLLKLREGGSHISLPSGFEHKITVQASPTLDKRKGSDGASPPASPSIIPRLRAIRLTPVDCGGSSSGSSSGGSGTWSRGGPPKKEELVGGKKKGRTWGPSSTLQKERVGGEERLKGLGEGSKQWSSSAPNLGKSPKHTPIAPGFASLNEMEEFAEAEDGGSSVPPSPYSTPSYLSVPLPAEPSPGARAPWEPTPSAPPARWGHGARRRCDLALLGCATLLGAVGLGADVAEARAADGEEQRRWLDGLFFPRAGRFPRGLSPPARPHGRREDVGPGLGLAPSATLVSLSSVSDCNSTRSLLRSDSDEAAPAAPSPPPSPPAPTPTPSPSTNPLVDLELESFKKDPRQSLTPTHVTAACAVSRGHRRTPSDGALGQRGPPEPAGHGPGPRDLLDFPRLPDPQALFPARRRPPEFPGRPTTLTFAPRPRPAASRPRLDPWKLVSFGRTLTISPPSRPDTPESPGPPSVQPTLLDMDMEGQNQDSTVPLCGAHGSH
T1 sequence (P45984 whole entry): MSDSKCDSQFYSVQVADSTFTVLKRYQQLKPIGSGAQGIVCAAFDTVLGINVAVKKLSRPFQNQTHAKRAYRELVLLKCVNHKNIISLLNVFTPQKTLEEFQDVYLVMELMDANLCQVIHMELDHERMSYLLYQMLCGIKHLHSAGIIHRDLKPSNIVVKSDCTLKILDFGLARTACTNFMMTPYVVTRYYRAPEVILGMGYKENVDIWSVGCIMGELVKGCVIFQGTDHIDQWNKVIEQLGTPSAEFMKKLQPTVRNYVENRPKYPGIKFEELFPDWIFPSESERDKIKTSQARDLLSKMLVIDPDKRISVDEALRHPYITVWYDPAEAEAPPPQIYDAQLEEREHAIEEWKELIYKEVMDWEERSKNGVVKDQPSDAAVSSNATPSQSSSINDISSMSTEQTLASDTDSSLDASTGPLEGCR

SMILES	remaining activity at 1 µM (panel of 442 kinases [1])	remaining activity at 10 µM (panel of 442 kinases [1]; [9])	remaining activity at 1 µM (panel of 442 kinases [2])	remaining activity at 10 µM (panel of 442 kinases [2]; 10 µM, read-out: PRKCQ (% of control at 10 µM))	remaining activity at 1 µM (panel of 442 kinases [3])	remaining activity at 10 µM (panel of 442 kinases [3]; 10 µM, read-out: RIPK5 (% of control at 10 µM))	remaining activity at 1 µM (panel of 442 kinases [4])	remaining activity at 10 µM (panel of 442 kinases [4]; [9])	remaining activity at 1 µM (panel of 442 kinases [5])	remaining activity at 10 µM (panel of 442 kinases [5]; [9])	remaining activity at 1 µM (panel of 442 kinases [6])	remaining activity at 10 µM (panel of 442 kinases [6]; [9])	remaining activity at 1 µM (panel of 442 kinases [7])	remaining activity at 10 µM (panel of 442 kinases [7]; [9])	remaining activity at 1 µM (panel of 442 kinases [8])	remaining activity at 10 µM (panel of 442 kinases [8]; [9])
Nc1cc(C(F)(F)F)c(-c2cc(N3CCOCC3)nc(N3CCOCC3)n2)cn1 [Buparlisib]	100%	100%	91%	100%	100%	89%	100%	100%	100%	100%	100%	100%	100%	66%	100%	100%
Cn1c(=O)n(-c2ccc(C(C)(C)C#N)cc2)c2c3cc(-c4cnc5ccccc5c4)ccc3ncc21 [Dactolisib, 2-methyl-2-[4-(3-methyl-2-oxo-8-quinolin-3-yl-2,3-dihydroimidazo[4,5-c]quinolin-1-yl)-phenyl] propionitrile]	100%	–	85%	–	80%	–	96%	–	100%	–	100%	–	65%	–	100%	–
COc1ncc(-c2ccc3nccc(-c4ccnnc4)c3c2)cc1NS(=O)(=O)c1ccc(F)cc1F [Omipalisib]	100%	–	100%	–	100%	–	46%	–	98%	–	70%	–	96%	–	69%	–
FC(F)c1nc2ccccc2n1-c1nc(N2CCOCC2)nc(N2CCOCC2)n1 [ZSTK474, 2-(difluoromethyl)-1-[4,6-di(4-morpholinyl)-1,3,5-triazin-2-yl]-1H-benzimidazole]	100%	–	98%	–	92%	–	100%	–	100%	–	80%	–	84%	–	100%	–
